# Results published in patent US8026244B2, “Thioxanthine derivatives and their use as inhibitors of MPO” (AstraZeneca AB, priority 2006, dated 2011).
# Target: T1, human MPO (Homo sapiens, UniProt P05164)
# T1 sequence (P05164 49-745): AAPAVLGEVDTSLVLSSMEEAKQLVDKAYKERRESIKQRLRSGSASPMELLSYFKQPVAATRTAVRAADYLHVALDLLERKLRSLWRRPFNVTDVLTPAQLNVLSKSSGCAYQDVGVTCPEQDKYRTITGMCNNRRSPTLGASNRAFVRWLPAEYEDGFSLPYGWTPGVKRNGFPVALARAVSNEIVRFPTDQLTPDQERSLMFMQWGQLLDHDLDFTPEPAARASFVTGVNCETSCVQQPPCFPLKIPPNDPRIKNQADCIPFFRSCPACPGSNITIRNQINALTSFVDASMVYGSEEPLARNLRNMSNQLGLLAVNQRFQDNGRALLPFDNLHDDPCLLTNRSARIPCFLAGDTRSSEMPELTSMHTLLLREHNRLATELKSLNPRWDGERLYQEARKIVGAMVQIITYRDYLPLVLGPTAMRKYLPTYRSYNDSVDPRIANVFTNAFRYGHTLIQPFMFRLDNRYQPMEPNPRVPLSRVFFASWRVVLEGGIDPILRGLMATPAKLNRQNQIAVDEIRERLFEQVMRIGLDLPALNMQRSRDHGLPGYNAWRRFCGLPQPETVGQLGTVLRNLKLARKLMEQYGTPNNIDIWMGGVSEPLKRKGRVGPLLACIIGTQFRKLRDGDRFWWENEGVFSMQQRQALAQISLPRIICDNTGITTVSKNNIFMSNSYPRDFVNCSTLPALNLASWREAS
# Experiment: MPO inhibition screen (TMB oxidation, absorbance), compounds alone or with added tyrosine
# Type: biochemical
# Conditions: in the presence of tyrosine (final concentration 8 μM); human MPO 2.5 nM; H2O2 100 μM; pH 6.5
# Experimental: Methods for the determination of MPO inhibitory activity are disclosed in patent application WO 02/090575. The pharmacological activity of compounds according to the invention was tested in the following screen in which the compounds were either tested alone or in the presence of added tyrosine:
# Assay buffer: 20 mM sodium/potassium phosphate buffer pH 6.5 containing 10 mM taurine and 100 mM NaCl.
# Developing reagent: 2 mM 3,3′,5,5′-tetramethylbenzidine (TMB), 200 μM KI, 200 mM acetate buffer pH 5.4 with 20% DMF.
# To 10 μl of diluted compounds in assay buffer, 40 μl of human MPO (final concentration 2.5 nM), with or without 20 μM tyrosine (final concentration, if present, 8 μM), was added and the mixture was incubated for 10 minutes at ambient temperature. Then 50 μl of H2O2 (final concentration 100 μM), or assay buffer alone as a control, were added. After incubation for 10 minutes at ambient temperature, the reaction was stopped by adding 10 μl 0.2 mg/ml of catalase (final concentration 18 μg/ml). The reaction mixture was left for an additional 5 minutes before 100 μl of TMB developing reagent was added. The amount of oxidised 3,3′,5,5′-tetramethylbenzidine formed was then measured after about 5 minutes using absorbance spectroscopy at about […]. IC50 values were then determined using standard procedures.
row,Compound,IC50
1,"O=c1[nH]c(=S)n(Cc2ccncc2)c2nc[nH]c12 [Example 3, 3-(pyridin-4-ylmethyl)-2-thioxo-1,2,3,7-tetrahydro-6H-purin-6-one]",100 nM
2,"CC(c1nc2ccccc2[nH]1)n1c(=S)[nH]c(=O)c2[nH]cnc21 (stereo not drawn) [Example 9, 3-[1-(1H-benzimidazol-2-yl)ethyl]-2-thioxo-1,2,3,7-tetrahydro-6H-purin-6-one]",10000 nM
3,"CC(Cn1c(=S)[nH]c(=O)c2[nH]cnc21)NCc1cccn1C (stereo not drawn) [Example 44, 3-(2-{[(1-methyl-1H-pyrrol-2-yl)methyl]amino}propyl)-2-thioxo-1,2,3,7-tetrahydro-6H-purin-6-one]",2200 nM
